{"source": "patent US20030092759A1", "about": "“Anticonvulsant derivatives useful for the treatment of restless limb syndrome and periodic limb movement disorder” (priority 2001, published 2003)", "key": {"[1]": {"system": "depression", "experiment": "clinical case study, concurrent depression (Example 1)", "type": "in vivo, human", "details": "Example 1, patient; sertraline HCl 100 mg/day added to topiramate 75 mg/day", "experimental": "(§1) Prior to treatment, within 15 minutes of falling asleep, the patient was awakened by uncontrollable jerking of their legs. […] The patient had also used lorazepam and alprazolam to treat the RLS, with some benefit.\n(§2) The patient was switched to topiramate, initially at 25 mg, with a gradual increase in dosage to 75 mg/day for treatment of the RLS. Sertraline HCl at 100 mg/day was added for the treatment of their concurrent depression. Lorazepam and alprazolam were discontinued. The RLS and depression symptoms were both reduced."}, "[2]": {"system": "RLS symptoms", "details": "case study report, Hargrave and Beckley 1998; cited from earlier work"}, "[3]": {"system": "restless legs syndrome (RLS)", "experiment": "clinical case studies of patients with restless legs syndrome", "type": "in vivo, human", "details": "for benefit of earlier treatment of the RLS: before topiramate; for benefit in controlling the RLS, earlier treatment: used in the previous 15 years", "experimental": "The ability of the compounds of formula I to treat restless legs syndrome, restless arm syndrome and associated sleep disorders is based on the results of recent clinical case studies, as described in more detail below.\nas §1, §2\nIn the previous 15 years, the patient had also used carisoprodol, chlordiazepoxide HCl, clorazepate dipotassium, meprobamate, phenobarbital, flurazepam HCl, promethazine, levodopa and carbidopa, with some benefit in controlling the RLS.\nTopiramate was started at 25 mg/day and increased gradually to 300 mg/day during a six month period.\nThe patient was a person, with diagnosed recurrent unipolar depression, post traumatic stress disorder, panic disorder, nicotine, alcohol and cannabis dependency. The patient also complained of migraine headaches and restless leg syndrome.\nThe patient was started at 25 mg HS topiramate, with dosage increased to 100 mg HS and then further increased to a final dosage of 200 mg HS. Concurrent pharmacotherapy included clonazepam at 2 mg/day, desipramine HCl at 10 mg/day, clonidine at […] b.i.d., mirtazepine at 15 mg HS, triamcinolone acetonide prn, albuterol prn, potassium at […], A to Z multivitamin 1×/day and fluticasone propionate prn."}, "[4]": {"system": "seizures", "details": "several rodent models of epilepsy; cited from earlier work"}, "[5]": {"system": "kindled epilepsy", "details": "animal model of kindled epilepsy; cited from earlier work"}, "[6]": {"system": "simple and complex partial seizures and secondarily generalized seizures", "details": "adjunctive therapy or monotherapy; cited from earlier work"}, "[7]": {"experiment": "side effects reported in the clinical case studies", "type": "in vivo, human", "details": "Example 2, person; 5 mg/day for the RLS"}}, "note": "Structures can show the parent of a compound that is named as a salt.", "data": [{"smiles": "CN[C@H]1CC[C@@H](c2ccc(Cl)c(Cl)c2)c2ccccc21", "note": "[Sertraline HCl]", "values": [{"measurement": "depression symptoms", "setting": "[1]", "result": "reduced"}, {"measurement": "change of RLS symptoms associated with the drug", "setting": "[2]", "result": "increase in RLS symptoms"}]}, {"smiles": "Cc1nnc2n1-c1ccc(Cl)cc1C(c1ccccc1)=NC2", "note": "[alprazolam]", "values": [{"measurement": "benefit of earlier treatment of the RLS", "setting": "[3]; Example 1, patient", "result": "some benefit"}]}, {"smiles": "C[C@@](Cc1ccc(O)c(O)c1)(NN)C(=O)O", "note": "[carbidopa]", "values": [{"measurement": "benefit in controlling the RLS, earlier treatment", "setting": "[3]; Example 2, person", "result": "some benefit"}]}, {"smiles": "CCCC(C)(COC(N)=O)COC(=O)NC(C)C", "note": "(stereo not shown) [carisoprodol]", "values": [{"measurement": "benefit in controlling the RLS, earlier treatment", "setting": "[3]; Example 2, person", "result": "some benefit"}]}, {"smiles": "CNC1=Nc2ccc(Cl)cc2C(c2ccccc2)=[N+]([O-])C1", "note": "[chlordiazepoxide HCl]", "values": [{"measurement": "benefit in controlling the RLS, earlier treatment", "setting": "[3]; Example 2, person", "result": "some benefit"}]}, {"smiles": "O=C1CN=C(c2ccccc2Cl)c2cc([N+](=O)[O-])ccc2N1", "note": "[clonazepam]", "values": [{"measurement": "effect on the RLS symptoms", "setting": "[3]; Example 2, person, 2-4 mg/day", "result": "very little positive effect"}]}, {"smiles": "O=C(O)C1N=C(c2ccccc2)c2cc(Cl)ccc2NC1=O", "note": "(stereo not shown) [clorazepate dipotassium]", "values": [{"measurement": "benefit in controlling the RLS, earlier treatment", "setting": "[3]; Example 2, person", "result": "some benefit"}]}, {"smiles": "CCN(CC)CCN1C(=O)CN=C(c2ccccc2F)c2cc(Cl)ccc21", "note": "[flurazepam HCl]", "values": [{"measurement": "benefit in controlling the RLS, earlier treatment", "setting": "[3]; Example 2, person", "result": "some benefit"}]}, {"smiles": "N[C@@H](Cc1ccc(O)c(O)c1)C(=O)O", "note": "[levodopa]", "values": [{"measurement": "benefit in controlling the RLS, earlier treatment", "setting": "[3]; Example 2, person", "result": "some benefit"}]}, {"smiles": "O=C1Nc2ccc(Cl)cc2C(c2ccccc2Cl)=NC1O", "note": "(stereo not shown) [lorazepam]", "values": [{"measurement": "benefit of earlier treatment of the RLS", "setting": "[3]; Example 1, patient", "result": "some benefit"}]}, {"smiles": "CCCC(C)(COC(N)=O)COC(N)=O", "note": "[meprobamate]", "values": [{"measurement": "benefit in controlling the RLS, earlier treatment", "setting": "[3]; Example 2, person", "result": "some benefit"}]}, {"smiles": "CC(CN1c2ccccc2Sc2ccccc21)N(C)C", "note": "(stereo not shown) [promethazine]", "values": [{"measurement": "benefit in controlling the RLS, earlier treatment", "setting": "[3]; Example 2, person", "result": "some benefit"}]}, {"smiles": "CC1(C)O[C@@H]2[C@@H](CO[C@@]3(COS(N)(=O)=O)OC(C)(C)O[C@@H]23)O1", "note": "[topiramate, 2,3:4,5-bis-O-(1-methylethylidene)-β-D-fructopyranose sulfamate]", "values": [{"measurement": "block of seizures", "setting": "[4]", "result": "effectively block seizures"}, {"measurement": "block of seizures", "setting": "[5]", "result": "effectively block seizures"}, {"measurement": "RLS symptoms", "setting": "[3]; Example 1, patient, topiramate 25 mg increased to 75 mg/day, with sertraline HCl 100 mg/day, lorazepam and alprazolam discontinued", "result": "reduced"}, {"measurement": "restless legs syndrome symptoms, patient report", "setting": "[3]; Example 2, person, 25 mg/day increased to 300 mg/day during six months", "result": "successfully reduced"}, {"measurement": "effectiveness for RLS compared with carisoprodol, patient report", "setting": "[3]; Example 3, person", "result": "more effective than carisoprodol"}, {"measurement": "effectiveness for RLS of topiramate and clonazepam in combination, patient report", "setting": "[3]; Example 3, person, the two drugs in combination", "result": "more effective than either drug alone"}, {"measurement": "effectiveness for restless leg syndrome compared with clonazepam 6 mg HS, patient report", "setting": "[3]; Example 3, person, topiramate 100 mg HS", "result": "as effective as clonazepam 6 mg HS"}, {"measurement": "efficacy in treating seizures in clinical trials", "setting": "[6]", "result": "effective"}]}, {"smiles": "OC(CCN1CCCCC1)(c1ccccc1)C1CCCCC1", "note": "(stereo not shown) [trixenryphenidyl]", "values": [{"measurement": "side effects", "setting": "[7]", "result": "dry mouth, blurred vision and amnesia"}]}]}
